What was measured:
Assay type in all cases: cell-based, mouse
[1] = tested on: neuron-glia mixed culture; assay: TNFα secretion by LPS in neuron-glia mixed culture system
Description: (§1) Neuronal tissue (a mixture of neurons and glial cells) was removed from a mouse fetus 21 days after fertilization (21st fetal day), and cultured in Neurobasal medium (+B-27, +5% HS) for 9 days. Then, the cells were divided into 3 groups (A to C groups), and subjected to the following treatments.
The cells were cultured for 24 hours after the medium was changed to a medium (Neurobasal A/N2 supplement) containing MHP1 (final concentration: 1, 10, 30, or 50 μg/ml). Then, LPS (final concentration: 10 μg/ml) was added to the medium, and the cells were further cultured for 24 hours. After culture, the concentration of TNFα in the medium was measured by the ELISA method.
The cells were cultured for 24 hours after the medium was changed to a medium (Neurobasal A/N2 supplement) containing MHP1 (final concentration: 30 or 50 μg/ml) and LPS (final concentration: 10 μg/ml). After culture, the concentration of TNFα in the medium was measured by the ELISA method.

MG6 cells [2] = assay: M1 shift of microglial cells by LPS (FACS); settings: MHP1 100 μg/ml, LPS 2 ng/ml, 24 hours; FIG. 8
Description: MG6 cells (mouse-derived microglial cell line) were cultured in a DMEM medium (+4% FBS) containing MHP1 (final concentration: 100 μg/ml) or RANKL protein (Recombinant Murin sRANKL Ligand (Cat No. 315-11): produced by Peprotech) (final concentration: 10 ng/ml), and LPS (final concentration: 2 ng/ml) for 24 hours by a standard method. After culture, the cells were washed with PBS, and Fc receptor blocking was performed using mouse IgG. Thereafter, F4/80-FITC (microglia marker antibody) and CD206-APC (M2 marker antibody) were added, and reacted at 4° C. for 30 minutes in a dark place. After the reaction, the cells were washed with PBS, and the percentage of microglia marker-positive and M2 marker-positive (M2 state) cells, and the percentage of microglia marker-positive and M2 marker-negative (M1 state) cells were measured by FACS analysis (FACSCanto II, produced by BD Biosciences).

MG6 cells [3] = assay: Proinflammatory cytokine secretion inhibition, LPS-stimulated microglial cells (ELISA); settings: MG6 cells, peptide 50 or 100 μg/ml, LPS 2 ng/ml, 24 hours
Description: MG6 cells (mouse-derived microglial cell line) were cultured in a DMEM medium (+4% FBS) containing MHP1 or MHP2 (final concentration: 50 or 100 μg/ml), and LPS (final concentration: 2 ng/ml) for 24 hours by a standard method. After culture, the concentrations of IL-6 and TNFα in the medium were measured by the ELISA method. In the Examples of the present application, the ELISA method was performed using a kit (Quantikine ELISA Mouse TNF-α or Quantikine ELISA Mouse IL-6, produced by R&D Systems). The results are shown in FIG. 1 (IL-6) and FIG. 2 (TNFα).
The proinflammatory cytokine secretion-inhibiting effect was examined in the same as in Example 2, except that the final concentration of MHP1 was set to 100 μg/ml, and that RANKL full-length protein was used at a final concentration of 10 ng/ml or 100 ng/ml as the comparison target.

NFκB (p65) = NFκB (p65) activation (TransAM NFkB p65 Kit); settings: RAW264.7 cells; MHP1 100 μg/ml, 10 minutes; FIG. 12C
Description: It has recently been reported that the administration of RANKL protein to mice induces the activation of osteoclasts. Accordingly, the influence of the RANKL peptide on osteoclasts was examined. The specific examination procedures were as follows. MHP1 (final concentration: 100 μg/ml) or RANKL protein (final concentration: 10 ng/ml) was added to a medium (DMEM medium (+4% FBS)) in which RAW264.7 cells were cultured, and the cells were collected after 10 minutes and 3 days.
For the samples collected after 10 minutes, nuclear proteins of the cells were extracted using the Nuclear Extract Kit (Active Motif), and the degree of NFκB (p65) activation was measured by the TransAM NFkB p65 Kit (Active Motif). On the other hand, for the samples collected after 3 days, the mRNA expression levels of NFATc1 and ACP5 were analyzed by real-time RT-PCR.

[4] = tested on: neuron-glia mixed culture; assay: Neuronal cell death by LPS in neuron-glia mixed culture system (MAP2 staining); settings: B group; MHP1 50 μg/ml pretreatment, LPS 10 μg/ml, 5 days; FIG. 6
Description: as §1
The cells were cultured for 24 hours after the medium was changed to a medium (Neurobasal A/N2 supplement) containing MHP1 (final concentration: 50 μg/ml). Then, LPS (final concentration: 10 μg/ml) was added to the medium, and the cells were further cultured for 5 days. After culture, immunostaining was performed according to a general method using an antibody (M4403, produced by Sigma-Aldrich) against MAP2, which was a neuronal cell marker, as a primary antibody (primary antibody: 1/1000 dilution, and second antibody (A 11001, produced by Invitrogen): 1/1000 dilution). The staining images were observed, and the ratio of the area of the stained region (i.e., the region occupied by the survival neurons) to the culture dish area was calculated.

RAW264.7 cells = assay: Proinflammatory cytokine secretion inhibition, LPS-stimulated macrophage cells (ELISA); settings: MHP1 30, 50 or 100 μg/ml, LPS 2 ng/ml, 24 hours
Description: RAW264.7 cells (mouse-derived macrophage cell line) were cultured in a DMEM medium (+4% FBS) containing MHP1 (final concentration: 30, 50, or 100 μg/ml) and LPS (final concentration: 2 ng/ml) for 24 hours by a standard method. After culture, the concentrations of IL-6 and TNFα in the medium were measured by the ELISA method. The results are shown in FIG. 3 (IL-6) and FIG. 4 (TNFα).

LMVYVVKTSIKIPSSHNLMKGGSTKNWSGN (listed as Mus musculus) [MHP1]
increase in the amount of TNFα secretion by LPS ([1]; pretreatment (A group), MHP1 1, 10, 30 or 50 μg/ml 24 hours before LPS 10 μg/ml, FIG. 5): suppressed
increase in the amount of TNFα secretion by LPS ([1]; simultaneous treatment (C group), MHP1 30 or 50 μg/ml with LPS 10 μg/ml, 24 hours, FIG. 7): suppressed
M1 shift caused by LPS (MG6 cells [2]): suppressed
increase in the amount of IL-6 secretion by LPS (MG6 cells [3]; FIG. 1): suppressed
increase in the amount of TNFα secretion by LPS (MG6 cells [3]; FIG. 2): suppressed
NFκB (p65) activation (NFκB (p65)): slightly activated
neuronal cell death by LPS [4]: suppressed
increase in the amount of IL-6 secretion by LPS (RAW264.7 cells; FIG. 3): suppressed
increase in the amount of TNFα secretion by LPS (RAW264.7 cells; FIG. 4): suppressed

Reference: US10517926B2, “Oligopeptide having proinflammatory cytokine secretion-inhibiting activity” (Osaka University, priority 2015, dated 2019)
